# In ChEMBL document CHEMBL3860107, “Discovery of [5-Amino-1-(2-methyl-3H-benzimidazol-5-yl)pyrazol-4-yl]-(1H-indol-2-yl)methanone (CH5183284/Debio 1347), An Orally Available and Selective Fibroblast Growth Factor Receptor (FGFR) Inhibitor” (J Med Chem, 2016):
# Calls of active or inactive are those of the source. The calls are words filed in the database; no cut-off is given here.
# Assays:
# [1] = target: Vascular endothelial growth factor receptor 2 (Homo sapiens, UniProt P35968); experiment: Inhibition of human KDR by time-resolved fluorescence or time-resolved fluorescence assay
# [2] = Antiproliferative activity against human SNU16 cells incubated for 4 days by CCK8 assay; assay type: functional, cell-based; details: SNU-16, 96 h
# cells = details: Homo sapiens, HCT-116, 96 h
# Description: Antiproliferative activity against human HCT116 cells incubated for 4 days by CCK8 assay
# [3] = target: Fibroblast growth factor receptor 4 (Homo sapiens, UniProt P22455); experiment: Inhibition of human FGFR4 by time-resolved fluorescence or time-resolved fluorescence assay
# [4] = target: Fibroblast growth factor receptor 3 (Homo sapiens, UniProt P22607)
# Description: Inhibition of human FGFR3 by time-resolved fluorescence or time-resolved fluorescence assay
# [5] = target: Fibroblast growth factor receptor 1 (Homo sapiens, UniProt P11362)
# Description: Inhibition of human FGFR1 by time-resolved fluorescence or time-resolved fluorescence assay
# [6] = Solubility in FaSSIF at pH 6.5 irradiated ultrasonically for 10 mins and shaken for 2 hrs followed by centrifugation for 10 mins by HPLC-UV method; assay type: physicochemical
# [7] = Intrinsic clearance in human liver microsomes at 1 uM in presence of NADPH incubated for 30 mins by LC/MS method; assay type: ADME; details: read-out: CLH
# hERG (KCNH2) = hERG (KCNH2) (Homo sapiens, UniProt Q12809); experiment: Inhibition of human ERG expressed in CHO cells assessed as reduction in channel currents at 10 uM at -80 mV holding potential by automated whole-cell patch clamp method; details: CHO cells that express hERG
# [8] = target: Voltage-gated inwardly rectifying potassium channel KCNH2 (Homo sapiens, UniProt Q12809); experiment: Inhibition of human ERG expressed in CHO cells assessed as reduction in channel currents at -80 mV holding potential by automated whole-cell patch clamp method
# [9] = Oral bioavailability cynomolgus monkey at 1 mg/kg by LC-MS/MS method; assay type: ADME, organism-based, Macaca fascicularis; details: in vivo
# [10] = Permeability from apical to basolateral side in human Caco2 cells at 10 uM incubated for 120 mins by LC-MS/MS method; assay type: ADME, cell-based; details: Caco-2, read-out: permeability
# [11] = target: Proto-oncogene tyrosine-protein kinase Src (Homo sapiens, UniProt P12931); experiment: Inhibition of human SRC by time-resolved fluorescence or time-resolved fluorescence assay
# Mus musculus = experiment: Toxicity in human SNU16 cells xenografted CAnN.Cg-Foxn1 (nu)/CrlCrlj nu/nu BALB nu/nu mouse assessed as induction of body weight loss at 30 and 100 mg/kg, po qd for 11 days; assay type: organism-based, SNU-16; details: in vivo, 264 h
# Rattus norvegicus [12] = experiment: Cardiotoxicity in telemetry instrumented rat assessed as effect on blood pressure at 30 mg/kg; assay type: toxicity, organism-based; details: in vivo
# Rattus norvegicus [13] = species: Rattus norvegicus; experiment: Cardiotoxicity in rat assessed as effect on blood pressure; assay type: toxicity, organism-based
# [14] = AUC in rat at 30 mg/kg; assay type: ADME, organism-based; details: in vivo
# [15] = Cardiotoxicity in Langendorff's isolated guinea pig heart perfusion model in assessed as induction of QTc prolongation; assay type: toxicity, tissue-based, Cavia porcellus
# [16] = Cardiotoxicity in monkey assessed as effect on blood pressure; assay type: toxicity, Macaca mulatta; details: rhesus monkey
# [17] = Antitumor activity against human SNU16 cells xenografted in CAnN.Cg-Foxn1 (nu)/CrlCrlj nu/nu BALB nu/nu mouse assessed as tumor growth inhibition at 30 mg/kg, po qd for 11 days; assay type: functional; details: SNU-16, po, 264 h, read-out: TGI
# MFE-280 = details: Homo sapiens
# Description: Antitumor activity against FGFR2 S252W mutant expressing human MFE280 cells xenografted in mouse
# [18] = Antitumor activity against human SNU16 cells xenografted in CAnN.Cg-Foxn1 (nu)/CrlCrlj nu/nu BALB nu/nu mouse assessed as tumor growth inhibition at 100 mg/kg, po qd for 11 days; assay type: functional; details: SNU-16, po, 264 h, read-out: TGI
# KG-1 = details: Homo sapiens
# Description: Antitumor activity against FGFR1OP-FGFR1 fusion protein expressing human KG1 cells xenografted in mouse
# SNU-16 = details: Homo sapiens
# RT112/84 = details: Homo sapiens
# Description: Antitumor activity against FGFR3-TACC3 mutant expressing human RT112/84 cells xenografted in mouse
# UM-UC-14 = details: Homo sapiens
# Description: Antitumor activity against FGFR3 S249C mutant expressing human UM-UC-14 cells xenografted in mouse
# Sequence of Voltage-gated inwardly rectifying potassium channel KCNH2 (Q12809 whole entry): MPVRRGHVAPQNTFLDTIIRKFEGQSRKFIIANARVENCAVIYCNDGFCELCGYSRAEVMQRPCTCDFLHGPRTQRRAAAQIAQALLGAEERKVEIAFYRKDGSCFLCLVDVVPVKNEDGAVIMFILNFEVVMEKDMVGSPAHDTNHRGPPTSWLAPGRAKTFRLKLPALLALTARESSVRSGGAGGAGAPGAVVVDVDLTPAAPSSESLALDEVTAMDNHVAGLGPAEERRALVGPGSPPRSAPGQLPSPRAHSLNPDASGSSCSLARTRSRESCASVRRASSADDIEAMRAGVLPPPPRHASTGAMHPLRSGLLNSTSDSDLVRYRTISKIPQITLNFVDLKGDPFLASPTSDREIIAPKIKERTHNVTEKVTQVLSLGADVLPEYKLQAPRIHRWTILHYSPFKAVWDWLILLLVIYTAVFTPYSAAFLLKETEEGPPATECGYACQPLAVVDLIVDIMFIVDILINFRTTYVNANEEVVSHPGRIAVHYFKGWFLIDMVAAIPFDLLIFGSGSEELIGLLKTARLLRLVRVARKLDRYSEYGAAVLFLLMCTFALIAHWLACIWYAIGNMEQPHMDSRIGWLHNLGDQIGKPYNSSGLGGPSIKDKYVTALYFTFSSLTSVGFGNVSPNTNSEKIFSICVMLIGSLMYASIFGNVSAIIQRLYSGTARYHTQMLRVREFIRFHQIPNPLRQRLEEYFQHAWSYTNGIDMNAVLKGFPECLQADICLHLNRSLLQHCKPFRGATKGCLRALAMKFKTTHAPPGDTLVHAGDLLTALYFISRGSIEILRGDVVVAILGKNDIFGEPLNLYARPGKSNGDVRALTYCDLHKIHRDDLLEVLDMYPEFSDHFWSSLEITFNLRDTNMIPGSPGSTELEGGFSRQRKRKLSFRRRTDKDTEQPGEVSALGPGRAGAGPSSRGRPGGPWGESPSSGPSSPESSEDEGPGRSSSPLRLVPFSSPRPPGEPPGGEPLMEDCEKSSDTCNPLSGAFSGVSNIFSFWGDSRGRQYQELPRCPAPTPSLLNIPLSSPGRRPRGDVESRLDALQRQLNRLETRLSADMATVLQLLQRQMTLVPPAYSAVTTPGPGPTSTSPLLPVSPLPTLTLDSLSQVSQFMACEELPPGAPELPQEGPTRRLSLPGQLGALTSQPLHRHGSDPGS
# Sequence of hERG (KCNH2) (Q12809 whole entry): as above
# Sequence of Proto-oncogene tyrosine-protein kinase Src (P12931 2-536 limits assumed): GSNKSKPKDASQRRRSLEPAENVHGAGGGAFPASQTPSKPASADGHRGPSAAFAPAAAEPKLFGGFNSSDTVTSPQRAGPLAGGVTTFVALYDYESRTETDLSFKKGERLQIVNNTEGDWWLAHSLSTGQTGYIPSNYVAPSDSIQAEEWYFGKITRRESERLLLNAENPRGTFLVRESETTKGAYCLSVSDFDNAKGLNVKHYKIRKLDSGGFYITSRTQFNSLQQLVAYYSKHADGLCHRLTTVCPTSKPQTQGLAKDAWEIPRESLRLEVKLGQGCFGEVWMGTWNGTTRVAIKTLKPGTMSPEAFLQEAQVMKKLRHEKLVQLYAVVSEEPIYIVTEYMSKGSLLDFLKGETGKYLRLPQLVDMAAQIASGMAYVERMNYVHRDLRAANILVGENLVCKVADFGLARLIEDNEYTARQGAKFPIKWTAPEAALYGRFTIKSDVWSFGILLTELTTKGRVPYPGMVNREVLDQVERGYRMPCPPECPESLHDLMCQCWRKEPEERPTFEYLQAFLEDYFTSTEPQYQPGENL
# Sequence of Vascular endothelial growth factor receptor 2 (P35968 whole entry): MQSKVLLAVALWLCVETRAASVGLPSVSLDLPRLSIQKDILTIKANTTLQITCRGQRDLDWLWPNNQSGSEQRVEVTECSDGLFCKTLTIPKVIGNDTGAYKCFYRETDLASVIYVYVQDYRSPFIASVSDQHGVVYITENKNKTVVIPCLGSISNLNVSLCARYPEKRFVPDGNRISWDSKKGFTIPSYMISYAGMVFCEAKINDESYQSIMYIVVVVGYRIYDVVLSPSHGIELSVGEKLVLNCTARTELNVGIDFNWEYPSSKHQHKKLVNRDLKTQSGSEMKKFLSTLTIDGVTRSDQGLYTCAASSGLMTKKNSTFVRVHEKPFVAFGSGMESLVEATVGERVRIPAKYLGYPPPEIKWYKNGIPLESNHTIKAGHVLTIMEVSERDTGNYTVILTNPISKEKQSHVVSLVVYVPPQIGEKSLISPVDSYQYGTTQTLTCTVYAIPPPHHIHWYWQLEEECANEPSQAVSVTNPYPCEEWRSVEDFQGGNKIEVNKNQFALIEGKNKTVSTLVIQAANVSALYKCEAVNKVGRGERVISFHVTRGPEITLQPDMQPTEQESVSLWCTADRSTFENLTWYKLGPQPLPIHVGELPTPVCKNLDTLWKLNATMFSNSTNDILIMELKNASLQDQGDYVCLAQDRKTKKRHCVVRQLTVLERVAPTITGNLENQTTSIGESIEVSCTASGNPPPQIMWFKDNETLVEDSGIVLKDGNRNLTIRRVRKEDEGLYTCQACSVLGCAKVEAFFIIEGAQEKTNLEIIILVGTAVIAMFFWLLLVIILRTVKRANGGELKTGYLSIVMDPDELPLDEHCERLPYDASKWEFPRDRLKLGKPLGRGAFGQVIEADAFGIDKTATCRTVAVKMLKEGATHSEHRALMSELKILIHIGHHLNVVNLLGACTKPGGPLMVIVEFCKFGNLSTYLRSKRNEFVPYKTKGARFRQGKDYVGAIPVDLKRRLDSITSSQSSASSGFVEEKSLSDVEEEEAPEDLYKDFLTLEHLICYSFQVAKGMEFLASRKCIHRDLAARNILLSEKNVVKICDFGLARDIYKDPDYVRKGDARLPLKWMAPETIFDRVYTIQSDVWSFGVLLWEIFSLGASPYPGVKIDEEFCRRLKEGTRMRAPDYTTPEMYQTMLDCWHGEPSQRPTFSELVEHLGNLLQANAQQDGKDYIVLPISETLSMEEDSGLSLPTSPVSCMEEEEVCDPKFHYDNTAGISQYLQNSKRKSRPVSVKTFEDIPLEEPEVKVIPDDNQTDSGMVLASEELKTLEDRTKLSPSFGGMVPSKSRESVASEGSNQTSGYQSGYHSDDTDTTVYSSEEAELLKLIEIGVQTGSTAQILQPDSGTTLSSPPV
# Sequence of Fibroblast growth factor receptor 4 (P22455 whole entry): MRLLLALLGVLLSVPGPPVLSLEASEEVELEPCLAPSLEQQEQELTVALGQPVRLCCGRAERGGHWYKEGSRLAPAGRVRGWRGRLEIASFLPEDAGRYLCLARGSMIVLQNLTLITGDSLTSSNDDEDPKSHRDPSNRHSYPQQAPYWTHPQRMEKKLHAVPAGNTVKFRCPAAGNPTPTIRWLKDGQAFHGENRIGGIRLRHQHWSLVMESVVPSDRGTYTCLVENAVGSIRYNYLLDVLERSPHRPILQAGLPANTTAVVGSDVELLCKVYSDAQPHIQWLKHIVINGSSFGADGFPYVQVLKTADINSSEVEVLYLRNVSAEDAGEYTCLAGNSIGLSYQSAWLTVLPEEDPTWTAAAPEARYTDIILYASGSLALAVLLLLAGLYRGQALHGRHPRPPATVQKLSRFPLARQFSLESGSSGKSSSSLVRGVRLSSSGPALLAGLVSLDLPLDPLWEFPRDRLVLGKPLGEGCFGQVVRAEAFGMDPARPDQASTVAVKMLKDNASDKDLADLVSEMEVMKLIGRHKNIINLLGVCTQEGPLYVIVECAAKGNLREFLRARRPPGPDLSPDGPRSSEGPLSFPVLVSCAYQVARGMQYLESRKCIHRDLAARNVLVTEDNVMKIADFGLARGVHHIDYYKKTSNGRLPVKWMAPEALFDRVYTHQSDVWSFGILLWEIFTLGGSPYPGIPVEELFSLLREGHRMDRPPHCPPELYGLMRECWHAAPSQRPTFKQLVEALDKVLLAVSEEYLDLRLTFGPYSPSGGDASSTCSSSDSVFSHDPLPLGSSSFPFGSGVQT
SMILES,IC50 [1],IC50 [2],IC50 (cells),solubility at 2 h [6],microsomal CLint at 1 µM [7],inhibition at 10 µM (hERG (KCNH2)),IC50 [8],other results
Cc1cccc(C(=O)c2cnn(-c3cc(O)ccc3Cl)c2N)c1,2.9 µM,15 µM,> 20 µM,,,,,
Nc1c(C(=O)c2cc3ccccc3[nH]2)cnn1-c1ccc2[nH]c(=O)[nH]c2c1,2.7 µM,,,,,,,IC50 [3]: > 50 µM; IC50 [4]: > 50 µM; IC50 [5]: > 50 µM
Nc1c(C(=O)c2cc3ccccc3[nH]2)cnn1-c1ccc2[nH]ccc2c1,,0.19 µM,0.47 µM,0.004 mg/mL,4.4 µL/min/mg,,,
Cc1nc2cc(-n3ncc(C(=O)c4cc5ccc(S(C)(=O)=O)cc5[nH]4)c3N)ccc2[nH]1,1 µM,0.082 µM,37 µM,,5.4 µL/min/mg,,,
CCc1nc2cc(-n3ncc(C(=O)c4cc5ccccc5[nH]4)c3N)ccc2[nH]1,1.7 µM,0.077 µM,1.5 µM,0.042 mg/mL,23 µL/min/mg,,,
Nc1c(C(=O)c2cc3ccccc3[nH]2)cnn1-c1ccccc1Cl,0.41 µM,2.9 µM,2.7 µM,,,,,
Cc1ccc2cc(C(=O)c3cnn(-c4ccc5nc(C)[nH]c5c4)c3N)[nH]c2c1,0.37 µM,,9.7 µM,,140 µL/min/mg,64%,6.9 µM,
Nc1c(C(=O)c2cc3ccccc3o2)cnn1-c1cc(O)ccc1Cl,0.17 µM,3.3 µM,8.2 µM,,,,,
Nc1c(C(=O)c2cc3cc(CN4CCOCC4)ccc3[nH]2)cnn1-c1cc(O)ccc1Cl,0.0024 µM,0.55 µM,3.6 µM,0.04 mg/mL,20 µL/min/mg,,,
Cc1nc2ccc(-n3ncc(C(=O)c4cc5cc(CN6CCOCC6)ccc5[nH]4)c3N)cc2[nH]1,0.21 µM,0.017 µM,8.9 µM,,15 µL/min/mg,7%,> 10 µM,
Nc1c(C(=O)c2ccc3ncccc3c2)cnn1-c1cc(O)ccc1Cl,1.6 µM,8.9 µM,9.3 µM,,,,,
Nc1c(C(=O)c2cc3ccccc3[nH]2)cnn1-c1ccc2nc[nH]c2c1,0.34 µM,0.38 µM,17 µM,0.037 mg/mL,4.2 µL/min/mg,,,
Cc1nc2cc(-n3ncc(C(=O)c4cc5ccc(Br)cc5[nH]4)c3N)ccc2[nH]1,0.29 µM,0.052 µM,11 µM,,4.2 µL/min/mg,31%,> 10 µM,"bioavailability [9]: 20%; Papp A→B at 2 h, 10 µM [10]: 22 nm/s; IC50 [11]: > 50 µM"
Cc1nc2cc(-n3ncc(C(=O)c4cc5ccc(CN6CCC(F)(F)CC6)cc5[nH]4)c3N)ccc2[nH]1,0.28 µM,0.006 µM,,,14 µL/min/mg,58%,8.6 µM,bioavailability [9]: 5%
Cc1nc2cc(-n3ncc(C(=O)c4cc5ccc(CN6CCOCC6)cc5[nH]4)c3N)ccc2[nH]1,0.12 µM,0.0026 µM,,,9.6 µL/min/mg,15%,> 10 µM,bioavailability [9]: 0%
Cc1cc2cc(-n3ncc(C(=O)c4cc5ccccc5[nH]4)c3N)ccc2[nH]1,,0.053 µM,5.3 µM,0.01 mg/mL,10 µL/min/mg,,,
Cc1nc2cc(-n3ncc(C(=O)c4cc5ccc(-c6ccccc6)cc5[nH]4)c3N)ccc2[nH]1,3.4 µM,0.084 µM,,,3.2 µL/min/mg,15%,> 10 µM,bioavailability [9]: 3%; IC50 [11]: > 50 µM
Cc1nc2cc(-n3ncc(C(=O)c4cc5ccccc5[nH]4)c3N)ccc2[nH]1 [FGFR INHIBITOR DEBIO 1347],2.1 µM,,,0.029 mg/mL,13 µL/min/mg,69%,6.9 µM,IC50 [3]: 0.29 µM; bioavailability [9]: 30%; Activity (Mus musculus): Non-Toxic; Activity (Rattus norvegicus [12]): Non-Toxic; Activity (Rattus norvegicus [13]): Non-Toxic; AUC [14]: 102 µg·h/mL; Activity [15]: Non-Toxic; IC50 [11]: 5.9 µM; Activity [16]: Non-Toxic
Cc1nc2ccc(-n3ncc(C(=O)c4cc5ccccc5[nH]4)c3N)cc2[nH]1 [FGFR INHIBITOR DEBIO 1347],,0.017 µM,5.9 µM,,,,,inhibition in vivo at 30 mg/kg [17]: 106%; TGI (MFE-280): Active; inhibition in vivo at 100 mg/kg [18]: 147%; TGI (KG-1): Active; AUC (SNU-16): 26000 ng·h/mL; TGI (RT112/84): Active; TGI (UM-UC-14): Active
Nc1c(C(=O)c2cc3ccccc3[nH]2)cnn1-c1cc(O)ccc1Cl,0.028 µM,0.36 µM,2.6 µM,0.02 mg/mL,15 µL/min/mg,,,
